From the NIST ThermoML archive (doi:10.1016/j.fluid.2014.04.002)

Legend:
[1] = xn = mol fraction of the nth substance listed; conditions: 101 kPa, Liquid; for viscosity: Concentric cylinders viscometry; for mass density: Vibrating tube method
[2] = refractive index (Na D-line) (dimensionless); xn = mol fraction of the nth substance listed; conditions: 101 kPa, Liquid, Standard Abbe refractometry
[3] = 101 kPa, Liquid; for viscosity: Concentric cylinders viscometry; for mass density: Vibrating tube method
[4] = refractive index (Na D-line) (dimensionless); conditions: 101.33 kPa, Liquid, Standard Abbe refractometry

CCOC(=O)C(C)O (stereo not drawn) [DL-ethyl lactate] + COCCOCCOCCOCCOC
x1 = 1
Conditions | mass density, [1] [kg/m3] | refractive index, [2] | viscosity, [1] [mPa·s]
288.15 K | 1039.28 | 1.41537 | 3.207
293.15 K | 1033.84 | 1.41307 | 2.75
298.15 K | 1028.39 | 1.41076 | 2.39
303.15 K | 1022.92 | 1.40843 | 2.097
308.15 K | 1017.42 | 1.4061 | 1.858
313.15 K | 1011.9 | 1.40374 | 1.658
318.15 K | 1006.36 | 1.40136 | 1.491
323.15 K | 1000.79 | 1.39898 | 1.349

COCCOCCOCCOCCOC [2,5,8,11,14-pentaoxapentadecane]
Conditions | mass density, [3] [kg/m3] | refractive index, [4] | viscosity, [3] [mPa·s]
288.15 K | 1016.7 | 1.43553 | 4.353
293.15 K | 1012.06 | 1.43338 | 3.795
298.15 K | 1007.42 | 1.43123 | 3.348
303.15 K | 1002.79 | 1.42906 | 2.983
308.15 K | 998.153 | 1.42697 | 2.668
313.15 K | 993.523 | 1.42447 | 2.407
318.15 K | 988.892 | 1.42206 | 2.185
323.15 K | 984.262 | 1.41985 | 2.003

C1CCOC1 [tetrahydrofuran]
Conditions | mass density, [3] [kg/m3] | refractive index, [4] | viscosity, [3] [mPa·s]
288.15 K | 893.293 | 1.41005 | 0.5252
293.15 K | 887.865 | 1.40737 | 0.5048
298.15 K | 882.403 | 1.40472 | 0.4847
303.15 K | 876.911 | 1.40203 | 0.464
308.15 K | 871.384 | 1.39931 | 0.4433
313.15 K | 865.82 | 1.39659 | 0.4227
318.15 K | 860.213 | 1.3938 | 0.4005
323.15 K | 854.558 | 1.39098 | 0.3636

OCCCO [propan-1,3-diol]
Conditions | mass density, [3] [kg/m3] | refractive index, [4] | viscosity, [3] [mPa·s]
288.15 K | 1055.89 | 1.44091 | 67.3
293.15 K | 1052.8 | 1.43949 | 52.52
298.15 K | 1049.69 | 1.43808 | 41.51
303.15 K | 1046.57 | 1.43667 | 33.2
308.15 K | 1043.43 | 1.43526 | 26.86
313.15 K | 1040.28 | 1.43384 | 21.97
318.15 K | 1037.11 | 1.43243 | 18.14
323.15 K | 1033.91 | 1.43101 | 15.2

CC(O)CO (stereo unspecified) [1,2-propanediol] + CCOC(=O)C(C)O
x2 = 0
Conditions | mass density, [1] [kg/m3] | refractive index, [2] | viscosity, [1] [mPa·s]
288.15 K | 1039.87 | 1.43437 | 82.54
293.15 K | 1036.25 | 1.4327 | 56.62
298.15 K | 1032.59 | 1.43102 | 44.03
303.15 K | 1028.88 | 1.42934 | 33.16
308.15 K | 1025.14 | 1.42764 | 25.45
313.15 K | 1021.35 | 1.42591 | 19.85
318.15 K | 1017.52 | 1.4242 | 15.73
323.15 K | 1013.66 | 1.42246 | 12.64

OCCCO [propan-1,3-diol] + CCOC(=O)C(C)O
x2 = 0
Conditions | mass density, [1] [kg/m3] | refractive index, [2] | viscosity, [1] [mPa·s]
288.15 K | 1055.89 | 1.44091 | 67.3
293.15 K | 1052.8 | 1.43949 | 52.52
298.15 K | 1049.69 | 1.43808 | 41.51
303.15 K | 1046.57 | 1.43667 | 33.2
308.15 K | 1043.43 | 1.43526 | 26.86
313.15 K | 1040.28 | 1.43384 | 21.97
318.15 K | 1037.11 | 1.43243 | 18.14
323.15 K | 1033.91 | 1.43101 | 15.2

CCOC(=O)C(C)O (racemic) [DL-ethyl lactate]
Conditions | mass density, [3] [kg/m3] | refractive index, [4] | viscosity, [3] [mPa·s]
288.15 K | 1039.28 | 1.41537 | 3.207
293.15 K | 1033.84 | 1.41307 | 2.75
298.15 K | 1028.39 | 1.41076 | 2.39
303.15 K | 1022.92 | 1.40843 | 2.097
308.15 K | 1017.42 | 1.4061 | 1.858
313.15 K | 1011.9 | 1.40374 | 1.658
318.15 K | 1006.36 | 1.40136 | 1.491
323.15 K | 1000.79 | 1.39898 | 1.349

C1CCOC1 [tetrahydrofuran] + CCOC(=O)C(C)O
x2 = 0
Conditions | mass density, [1] [kg/m3] | refractive index, [2] | viscosity, [1] [mPa·s]
288.15 K | 893.293 | 1.41005 | 0.5252
293.15 K | 887.865 | 1.40737 | 0.5048
298.15 K | 882.403 | 1.40472 | 0.4847
303.15 K | 876.911 | 1.40203 | 0.464
308.15 K | 871.384 | 1.39931 | 0.4433
313.15 K | 865.82 | 1.39659 | 0.4227
318.15 K | 860.213 | 1.3938 | 0.4005
323.15 K | 854.558 | 1.39098 | 0.3636

CC(O)CO (stereo unspecified) [1,2-propanediol]
Conditions | mass density, [3] [kg/m3] | refractive index, [4] | viscosity, [3] [mPa·s]
288.15 K | 1039.87 | 1.43437 | 82.54
293.15 K | 1036.25 | 1.4327 | 56.62
298.15 K | 1032.59 | 1.43102 | 44.03
303.15 K | 1028.88 | 1.42934 | 33.16
308.15 K | 1025.14 | 1.42764 | 25.45
313.15 K | 1021.35 | 1.42591 | 19.85
318.15 K | 1017.52 | 1.4242 | 15.73
323.15 K | 1013.66 | 1.42246 | 12.64
